# According to patent US20250326785A1, “SODIUM SALT AND ETHANOLAMINE SALT OF 23-HYDROXYTORMENTIC ACID” (HUYABIO International, LLC, priority 2024, published 2025):
# Read-outs that look alike come from different tables or passages of the source.
# Legend:
# [1] = for HPLC Conc.: 24 h, starting concentration 100 mg/mL; for HPLC Conc. / HPLC Conc./: based on free acid
# Text: pH-dependent solubility of the HBI- 3808 sodium salt of Pattern 2 was studied.
# pH dependent solubility of the HBI- 3808 sodium salt of Pattern 5 was studied.
# [2] = Stability study at 25° C./60% RH, 40° C./75% RH and 60° C. (XRPD, HPLC purity, impurity tracking); conditions: for XRPD: * = crystalline salt; for HPLC: based on free acid
# Text: Stability of HBI-3808 Sodium Salt Pattern 2 was studied over 13 weeks.
# Table 2F presents impurity tracking results from a 13-week stability study of HBI-3808 sodium salt of Pattern 2. […]
# [3] = 25° C./60% RH (open vial), 13 Weeks
# [4] = 25° C./60% RH (open vial), 1 Week
# [5] = 25° C./60% RH (open vial), 2 Weeks
# [6] = 25° C./60% RH (open vial), 4 Weeks
# [7] = 25° C./60% RH (open vial), 8 Weeks
# [8] = 40° C./75% RH (open vial), 13 Weeks
# [9] = 40° C./75% RH (open vial), 1 Week
# [10] = 40° C./75% RH (open vial), 2 Weeks
# [11] = 40° C./75% RH (open vial), 4 Weeks
# [12] = 40° C./75% RH (open vial), 8 Weeks
structure (smiles),measurement,setting,value
"C[C@@H]1CC[C@]2(C(=O)O)CC[C@]3(C)C(=CC[C@@H]4[C@@]5(C)C[C@@H](O)[C@H](O)[C@@](C)(CO)[C@@H]5CC[C@]43C)[C@@H]2[C@]1(C)O.NCCO [ethanolamine salt of HBI-3808, ETHANOLAMINE SALT OF 23-HYDROXYTORMENTIC ACID]",XRPD of recovered solids,[1]; FaSSGF,consistent with ethanolamine salt
same,final Measured pH,[1]; FaSSGF,8.62
same,HPLC Conc.,"[1]; FaSSGF, final pH 8.62",57.2 mg/mL
same,XRPD pattern of recovered solids,"[1]; FaSSGF, *** = crystalline salt",1***
same,HPLC Conc./,[1]; FaSSGF,57.2 mg/mL
same,concentration,[1]; pH 1.2,< 1000 ng/mL
same,XRPD of recovered solids,[1]; target pH 1.2,Amorphous solids
same,HPLC Conc.,[1]; target pH 1.2 buffer,<0.001 mg/mL
same,XRPD of recovered solids,[1]; target pH 3.0,consistent with HBI-3808 free acid of Pattern 1
same,HPLC Conc.,[1]; target pH 3.0 buffer,<0.001 mg/mL
same,XRPD pattern of recovered solids,"[1]; target pH 3.0 buffer, ** = free acid",1**
same,XRPD of recovered solids,[1]; target pH 4.0,consistent with HBI-3808 free acid of Pattern 1
same,HPLC Conc.,[1]; target pH 4.0 buffer,<0.001 mg/mL
same,XRPD pattern of recovered solids,"[1]; target pH 4.0 buffer, ** = free acid",1**
same,XRPD of recovered solids,[1]; target pH 6.8,Amorphous solids
same,HPLC Conc.,[1]; target pH 6.8 buffer,0.5 mg/mL
same,HPLC Conc./,[1]; target pH 6.8 phosphate buffer,0.5 mg/mL
same,XRPD of recovered solids,[1]; target pH 8.0,Amorphous solids
same,HPLC Conc.,[1]; target pH 8.0 buffer,17.7 mg/mL
same,HPLC Conc./,[1]; target pH 8.0 phosphate buffer,17.7 mg/mL
same,HPLC/ % area,[2]; [3],97.4 % area
same,XRPD,[2]; [4],1*
same,HPLC,[2]; [4],97.3 % area
same,XRPD,[2]; [5],1*
same,HPLC,[2]; [5],97.3 % area
same,XRPD,[2]; [6],1*
same,HPLC,[2]; [6],97.5 % area
same,XRPD,[2]; [7],1*
same,HPLC,[2]; [7],97.0 % area
same,XRPD,[2]; [3],1*
same,HPLC,[2]; [3],97.3 % area
same,RRT 0.801 impurity,"[2]; 25° C./60% RH, 1 week",0.10 % area
same,RRT 0.970 impurity,"[2]; 25° C./60% RH, 1 week",0.10 % area
same,RRT 1.000 (HBI-3808),"[2]; 25° C./60% RH, 1 week",97.31 % area
same,RRT 1.025 (Isomer of HBI-3808),"[2]; 25° C./60% RH, 1 week",2.48 % area
same,Total Impurities,"[2]; 25° C./60% RH, 1 week",2.69 % area
same,RRT 0.970 impurity,"[2]; 25° C./60% RH, 2 weeks",0.12 % area
same,RRT 1.000 (HBI-3808),"[2]; 25° C./60% RH, 2 weeks",97.29 % area
same,RRT 1.025 (Isomer of HBI-3808),"[2]; 25° C./60% RH, 2 weeks",2.39 % area
same,RRT 1.935 impurity,"[2]; 25° C./60% RH, 2 weeks",0.20 % area
same,Total Impurities,"[2]; 25° C./60% RH, 2 weeks",2.71 % area
same,RRT 0.970 impurity,"[2]; 25° C./60% RH, 4 weeks",0.11 % area
same,RRT 1.000 (HBI-3808),"[2]; 25° C./60% RH, 4 weeks",97.47 % area
same,RRT 1.025 (Isomer of HBI-3808),"[2]; 25° C./60% RH, 4 weeks",2.41 % area
same,Total Impurities,"[2]; 25° C./60% RH, 4 weeks",2.53 % area
same,RRT 0.970 impurity,"[2]; 25° C./60% RH, 8 weeks",0.10 % area
same,RRT 1.000 (HBI-3808),"[2]; 25° C./60% RH, 8 weeks",96.99 % area
same,RRT 1.025 (Isomer of HBI-3808),"[2]; 25° C./60% RH, 8 weeks",2.51 % area
same,RRT 1.767 impurity,"[2]; 25° C./60% RH, 8 weeks",0.29 % area
same,Total Impurities,"[2]; 25° C./60% RH, 8 weeks",3.01 % area
same,RRT 0.801 impurity,"[2]; 25° C./60% RH, 13 weeks",0.12 % area
same,RRT 1.000 (HBI-3808),"[2]; 25° C./60% RH, 13 weeks",97.33 % area
same,RRT 1.025 (Isomer of HBI-3808),"[2]; 25° C./60% RH, 13 weeks",2.37 % area
same,RRT 1.935 impurity,"[2]; 25° C./60% RH, 13 weeks",0.19 % area
same,Total Impurities,"[2]; 25° C./60% RH, 13 weeks",2.67 % area
same,RRT 1.000 (HBI-3808),"[2]; 25° C./60% RH, T = 0",97.82 % area
same,RRT 1.025 (Isomer of HBI-3808),"[2]; 25° C./60% RH, T = 0",2.18 % area
same,Total Impurities,"[2]; 25° C./60% RH, T = 0",2.18 % area
same,HPLC/ % area,[2]; [8],97.4 % area
same,XRPD,[2]; [9],1*
same,HPLC,[2]; [9],97.3 % area
same,XRPD,[2]; [10],1*
same,HPLC,[2]; [10],97.3 % area
same,XRPD,[2]; [11],1*
same,HPLC,[2]; [11],97.5 % area
same,XRPD,[2]; [12],1*
same,HPLC,[2]; [12],96.9 % area
same,XRPD,[2]; [8],1*
same,HPLC,[2]; [8],97.4 % area
